The record followed here is doi:10.1101/2024.06.17.599304v1, “Dizocilpine derivatives with neuroprotective effect lacking the psychomimetic side effects” (biorxiv, 2024).

Where a name gives a salt, the structure may show the parent alone.

In assay [1] the target is T1, hGluN1/hGluN2A (Homo sapiens, UniProt Q05586+Q12879). Nature of the assay: cell-based. Set-up: gene GRIN1; cDNA vectors for human GluN1-1a and GluN2A co-transfected with GFP in HEK293 cells; diheteromeric receptor; whole-cell voltage-clamp electrophysiology, inhibition of steady-state L-glutamate-induced currents at -60 mV. Conditions: HEK293; -60 mV, 1 mM L-glutamate. The procedure:
(§1) First, we determined the relative inhibition of all novel compounds on the two major diheteromeric NMDA receptor subtypes in the adult cortex – GluN1/GluN2A and GluN1/GluN2B [1] – using a clinically relevant concentration (3 µM). We kept the measured cells at a membrane potential of -60 mV, and the values of relative inhibition by the compounds were calculated from the L-glutamate-induced responses of human versions of the GluN1/GluN2A (hGluN1/hGluN2A) and GluN1/GluN2B (hGluN1/hGluN2B) receptors obtained under steady-state conditions. […] Specifically, in the case of hGluN1/hGluN2A receptors, we obtained relative inhibition values ranging from ∼5% for compound 3h to ∼93% for compound 6f, while for hGluN1/hGluN2B receptors, we measured values ranging from ∼3% for compound 3i to ∼92% for compound 6g at a fixed dose of 3 µM of the tested compound. […] It can be assumed that the positive and negative effects of a given inhibitor of the NMDA receptor in vivo are caused by their affinity and the kinetics of inhibition, in addition to their availability in the CNS. […] In further experiments, we generated concentration-response curves for 6f (0.03-10 µM) and 3l (0.3-300 µM) on both hGluN1/hGluN2A and hGluN1/hGluN2B receptors at negative (-60 mV) and positive (40 mV) membrane potentials (Fig. 2A-D). […] (A, C) Representative whole-cell voltage-clamp recordings of HEK293 cells expressing hGluN1/hGluN2A or hGluN1/hGluN2B receptors showing the inhibitory effects of compound 6f (0.03 - 300 µM) and compound 3l (0.3 - 300 µM) at membrane potentials of 40 mV (A) and -60 mV (C). Glu = 1 mM L-glutamate. (B, D) Normalized inhibitory concentration-response curves for compound 6f and compound 3l for hGluN1/hGluN2A and hGluN1/hGluN2B receptors at membrane potentials of 40 mV (B) and -60 mV (D). Concentration-response curves were fitted using Equation 1; the resulting IC50 values, Hill coefficients, and the numbers of cells measured for each membrane potential are shown in Table 3.

For assay [2], the target named is T2, human plasmatic butyrylcholinesterase (hBChE) (Homo sapiens, UniProt P06276).
T2 construct: gene BCHE
Nature of the assay: biochemical.

The target in assay [3] is T3, hGluN1/hGluN2B (Homo sapiens, UniProt Q05586+Q13224). Nature of the assay: cell-based. Set-up: gene GRIN1; cDNA vectors for human GluN1-1a and GluN2B co-transfected with GFP in HEK293 cells; diheteromeric receptor; whole-cell voltage-clamp electrophysiology, inhibition of steady-state L-glutamate-induced currents at -60 mV. Conditions: HEK293; -60 mV, 1 mM L-glutamate. The procedure:
as §1

The target of assay [4] is T4, human recombinant AChE (hAChE) (Homo sapiens, UniProt P22303).
T4 construct: recombinant enzyme purchased from Merck
Nature of the assay: modified Ellman's method. The assay is classed as biochemical. For orientation: In Ellman's method for cholinesterases, released thiocholine reacts with DTNB.

The target of assay [5] is T3, hGluN1/hGluN2B. Set-up: gene GRIN1. Conditions: -60 mV; 1 mM L-glutamate, 100 µM glycine; pH 7.3.
Assay [6] addresses T1, hGluN1/hGluN2A. Set-up: gene GRIN1. Conditions: -60 mV; 1 mM L-glutamate, 100 µM glycine; pH 7.3.

T3 sequence (Q13224 27-1484, other chains not shown): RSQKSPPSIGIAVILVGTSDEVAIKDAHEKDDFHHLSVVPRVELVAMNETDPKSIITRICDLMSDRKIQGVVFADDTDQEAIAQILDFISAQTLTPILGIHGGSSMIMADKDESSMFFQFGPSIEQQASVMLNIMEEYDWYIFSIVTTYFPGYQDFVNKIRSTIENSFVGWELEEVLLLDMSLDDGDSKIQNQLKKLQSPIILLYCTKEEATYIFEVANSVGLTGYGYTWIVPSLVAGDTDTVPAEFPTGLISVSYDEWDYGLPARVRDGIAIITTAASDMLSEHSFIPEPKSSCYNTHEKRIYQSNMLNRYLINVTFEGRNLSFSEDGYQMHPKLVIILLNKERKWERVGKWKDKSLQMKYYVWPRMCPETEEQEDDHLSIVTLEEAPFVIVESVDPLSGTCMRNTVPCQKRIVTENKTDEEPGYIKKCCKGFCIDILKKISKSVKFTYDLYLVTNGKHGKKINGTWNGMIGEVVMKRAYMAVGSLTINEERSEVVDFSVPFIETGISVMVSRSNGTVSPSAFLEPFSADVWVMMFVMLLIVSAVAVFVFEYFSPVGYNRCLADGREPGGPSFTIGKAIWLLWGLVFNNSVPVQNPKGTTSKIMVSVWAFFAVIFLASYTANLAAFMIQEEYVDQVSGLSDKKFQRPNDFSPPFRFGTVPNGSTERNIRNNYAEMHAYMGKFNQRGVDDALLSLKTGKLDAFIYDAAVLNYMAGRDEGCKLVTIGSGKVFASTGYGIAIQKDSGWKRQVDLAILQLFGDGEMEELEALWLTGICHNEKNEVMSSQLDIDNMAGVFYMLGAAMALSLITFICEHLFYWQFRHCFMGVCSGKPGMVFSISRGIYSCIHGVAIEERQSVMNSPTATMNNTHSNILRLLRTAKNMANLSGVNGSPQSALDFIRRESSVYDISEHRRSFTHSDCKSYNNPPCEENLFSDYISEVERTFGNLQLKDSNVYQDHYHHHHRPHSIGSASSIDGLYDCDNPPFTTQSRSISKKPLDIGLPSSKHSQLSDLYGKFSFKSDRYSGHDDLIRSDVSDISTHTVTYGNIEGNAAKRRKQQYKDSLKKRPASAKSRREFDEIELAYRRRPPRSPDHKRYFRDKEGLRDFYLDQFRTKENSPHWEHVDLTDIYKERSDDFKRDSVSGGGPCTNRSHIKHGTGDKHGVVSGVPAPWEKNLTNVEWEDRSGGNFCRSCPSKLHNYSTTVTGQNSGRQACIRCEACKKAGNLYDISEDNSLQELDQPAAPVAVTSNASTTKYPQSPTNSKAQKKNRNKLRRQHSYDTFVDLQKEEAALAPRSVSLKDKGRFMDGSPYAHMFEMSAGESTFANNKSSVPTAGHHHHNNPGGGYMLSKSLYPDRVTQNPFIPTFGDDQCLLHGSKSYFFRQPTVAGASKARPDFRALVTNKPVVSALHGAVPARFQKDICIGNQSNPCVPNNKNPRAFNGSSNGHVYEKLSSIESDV
T2 sequence (P06276 29-602): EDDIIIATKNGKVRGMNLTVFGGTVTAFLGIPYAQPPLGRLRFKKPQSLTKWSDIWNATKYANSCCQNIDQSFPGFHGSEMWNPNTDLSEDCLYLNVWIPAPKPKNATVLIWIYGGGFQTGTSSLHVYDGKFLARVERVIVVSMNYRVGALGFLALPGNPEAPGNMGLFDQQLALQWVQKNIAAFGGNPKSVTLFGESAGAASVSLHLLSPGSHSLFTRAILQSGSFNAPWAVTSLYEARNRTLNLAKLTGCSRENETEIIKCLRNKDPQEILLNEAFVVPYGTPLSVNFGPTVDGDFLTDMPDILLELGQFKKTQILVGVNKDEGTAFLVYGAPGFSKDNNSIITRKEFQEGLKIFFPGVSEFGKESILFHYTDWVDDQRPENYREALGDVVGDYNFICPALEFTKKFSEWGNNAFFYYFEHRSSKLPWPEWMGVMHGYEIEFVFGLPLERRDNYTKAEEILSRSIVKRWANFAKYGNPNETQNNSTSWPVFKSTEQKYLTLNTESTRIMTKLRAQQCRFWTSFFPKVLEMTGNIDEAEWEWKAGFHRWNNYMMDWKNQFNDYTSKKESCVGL
T4 sequence (P22303 32-614): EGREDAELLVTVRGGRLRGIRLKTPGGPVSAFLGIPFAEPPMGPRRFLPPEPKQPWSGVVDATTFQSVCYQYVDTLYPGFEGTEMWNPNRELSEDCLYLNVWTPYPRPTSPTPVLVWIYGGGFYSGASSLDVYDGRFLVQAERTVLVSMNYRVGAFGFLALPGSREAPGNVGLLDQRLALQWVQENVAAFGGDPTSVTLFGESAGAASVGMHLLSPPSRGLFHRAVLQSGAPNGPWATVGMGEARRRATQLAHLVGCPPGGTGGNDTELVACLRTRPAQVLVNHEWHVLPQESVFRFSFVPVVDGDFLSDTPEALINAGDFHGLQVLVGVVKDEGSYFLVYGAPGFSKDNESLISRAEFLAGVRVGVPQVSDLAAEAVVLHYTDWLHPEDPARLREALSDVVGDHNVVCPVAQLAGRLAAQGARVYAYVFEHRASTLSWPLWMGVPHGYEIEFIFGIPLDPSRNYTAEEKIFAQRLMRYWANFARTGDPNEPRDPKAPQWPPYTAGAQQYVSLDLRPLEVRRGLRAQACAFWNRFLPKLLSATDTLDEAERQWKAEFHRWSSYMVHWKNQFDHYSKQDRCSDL
T1 sequence (Q12879 23-1464, other chains not shown): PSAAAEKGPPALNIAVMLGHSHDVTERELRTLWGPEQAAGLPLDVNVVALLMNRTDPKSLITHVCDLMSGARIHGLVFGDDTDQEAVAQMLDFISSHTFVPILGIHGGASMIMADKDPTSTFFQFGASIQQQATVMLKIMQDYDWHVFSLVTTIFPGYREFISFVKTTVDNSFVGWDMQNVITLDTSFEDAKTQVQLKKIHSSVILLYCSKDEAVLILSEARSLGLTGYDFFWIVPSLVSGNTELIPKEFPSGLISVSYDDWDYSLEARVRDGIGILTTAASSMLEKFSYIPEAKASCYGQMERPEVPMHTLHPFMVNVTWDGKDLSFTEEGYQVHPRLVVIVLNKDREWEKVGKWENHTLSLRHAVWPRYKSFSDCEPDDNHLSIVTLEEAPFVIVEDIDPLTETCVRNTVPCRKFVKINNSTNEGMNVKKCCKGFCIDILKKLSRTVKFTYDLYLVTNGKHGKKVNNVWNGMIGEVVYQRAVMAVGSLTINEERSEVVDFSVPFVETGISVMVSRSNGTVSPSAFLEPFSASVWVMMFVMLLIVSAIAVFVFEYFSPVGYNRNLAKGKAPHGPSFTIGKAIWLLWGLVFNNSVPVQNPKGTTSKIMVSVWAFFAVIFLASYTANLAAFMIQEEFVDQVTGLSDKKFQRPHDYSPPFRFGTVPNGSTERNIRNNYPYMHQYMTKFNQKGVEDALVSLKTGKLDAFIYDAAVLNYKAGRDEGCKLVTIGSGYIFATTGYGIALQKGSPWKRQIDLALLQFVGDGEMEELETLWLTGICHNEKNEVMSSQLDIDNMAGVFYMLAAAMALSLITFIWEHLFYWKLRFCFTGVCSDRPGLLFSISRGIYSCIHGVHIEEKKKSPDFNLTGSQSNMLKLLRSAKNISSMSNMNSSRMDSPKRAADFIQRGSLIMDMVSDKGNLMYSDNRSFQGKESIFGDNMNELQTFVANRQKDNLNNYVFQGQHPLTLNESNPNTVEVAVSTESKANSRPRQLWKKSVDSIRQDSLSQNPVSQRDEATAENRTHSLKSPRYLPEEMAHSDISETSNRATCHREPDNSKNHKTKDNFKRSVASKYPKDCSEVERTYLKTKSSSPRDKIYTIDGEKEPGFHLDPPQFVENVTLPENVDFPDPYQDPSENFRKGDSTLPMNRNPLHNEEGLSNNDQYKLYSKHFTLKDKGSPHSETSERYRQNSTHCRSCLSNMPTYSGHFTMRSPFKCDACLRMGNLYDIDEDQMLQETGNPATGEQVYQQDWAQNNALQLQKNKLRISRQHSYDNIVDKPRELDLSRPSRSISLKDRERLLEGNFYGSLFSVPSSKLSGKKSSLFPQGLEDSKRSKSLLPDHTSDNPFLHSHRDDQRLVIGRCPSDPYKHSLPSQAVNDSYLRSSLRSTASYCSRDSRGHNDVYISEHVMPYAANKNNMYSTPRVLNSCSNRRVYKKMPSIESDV

Consider `c1ccc2c(c1)CCc1ccccc1C2N1CCOCC1` [3i, 4-(10,11-dihydro-5H-dibenzo[a,d][7]annulen-5-yl)morpholine hydrochloride], for which the inhibition (commonly how much of the control response was suppressed) at 3 µM was 6.78 ± 1.67% against hGluN1/hGluN2A [1] and 3.43 ± 1.33% against hGluN1/hGluN2B [3]. For the same compound, the IC50 in assay [2] and in assay [4] was above 100 µM in each case.
On to `c1ccc2c(c1)CCc1ccccc1C2NC1CCCCC1` [3g, N-cyclohexyl-10,11-dihydro-5H-dibenzo[a,d][7]annulen-5-amine hydrochloride], for which testing at 3 µM against hGluN1/hGluN2A [1] gave an inhibition of 79.4 ± 2.06%. The “RI (%) at 3 μM” value on hGluN1/hGluN2B [5] was 85.95 ± 3.13%. Also, the concentration for half-maximal inhibition (IC50) (commonly the concentration that gives 50% inhibition) in assay [2] turned out to be 14.4 ± 1.3 µM.
With `CNC1c2ccccc2C=Cc2ccccc21` [6a, N-methyl-5H-dibenzo[a,d][7]annulen-5-amine hydrochloride], the inhibition at 3 µM is 54.3 ± 3.11% at hGluN1/hGluN2A [1] and 68.9 ± 3.57% on hGluN1/hGluN2B [3]. Further, the IC50 in assay [2] and in assay [4] was above 100 µM in each case.
In the case of `C1=Cc2ccccc2C(N2CCOCC2)c2ccccc21` [6i, 4-(5H-dibenzo[a,d][7]annulen-5-yl)morpholine hydrochloride], the figures for the inhibition at 3 µM against hGluN1/hGluN2A [1] and against hGluN1/hGluN2B [3] were 31.9 ± 4.16% and 57.6 ± 3.47%, respectively. For the same compound, the IC50 in assay [2] and in assay [4] was above 100 µM in each case.
Consider `CCCCNC1c2ccccc2CCc2ccccc21` [3e, N-butyl-10,11-dihydro-5H-dibenzo[a,d][7]annulen-5-amine hydrochloride], for which the results for the inhibition at 3 µM at hGluN1/hGluN2A [1] and at hGluN1/hGluN2B [3] were 76.4 ± 4.03% and 85.8 ± 2.19%, respectively. In addition, the IC50 in assay [2] and in assay [4] was above 100 µM in each case.
In the case of `CCN1CCN(C2c3ccccc3CCc3ccccc32)CC1` [3o, 1-(10,11-dihydro-5H-dibenzo[a,d][7]annulen-5-yl)-4-ethylpiperazine dihydrochloride], the inhibition at 3 µM stood at 7.64 ± 0.84% against hGluN1/hGluN2A [1] and 5.22 ± 1.49% on hGluN1/hGluN2B [3]. For the same compound, the IC50 in assay [2] and in assay [4] was above 100 µM in each case.
`CCN(CC)C1c2ccccc2CCc2ccccc21` [3n, N,N-diethyl-10,11-dihydro-5H-dibenzo[a,d][7]annulen-5-amine hydrochloride]: the inhibition at 3 µM against hGluN1/hGluN2A [1] is 68.4 ± 4.84%; at hGluN1/hGluN2B [3], 75 ± 3.14%. The half-maximal inhibitory concentration (IC50) in assay [2] and in assay [4] was above 100 µM throughout.
In the case of `c1ccc2c(c1)CCc1ccccc1C2N1CCCCC1` [3h, 1-(10,11-dihydro-5H-dibenzo[a,d][7]annulen-5-yl)piperidine hydrochloride], the figures for the inhibition at 3 µM at hGluN1/hGluN2A [1] and at hGluN1/hGluN2B [3] were 5.4 ± 1.39% and 5.2 ± 1.56%, respectively. The IC50 in assay [2] and in assay [4] was above 100 µM in each case.
With `C1=Cc2ccccc2C(NC2CC2)c2ccccc21` [6d, N-cyclopropyl-5H-dibenzo[a,d][7]annulen-5-amine hydrochloride], the inhibition at 3 µM is 45 ± 3.55% against hGluN1/hGluN2A [1] and 57.2 ± 3.27% on hGluN1/hGluN2B [3]. In addition, the half-maximal inhibitory concentration (IC50) in assay [2] and in assay [4] was above 100 µM throughout.
Turning to `c1ccc2c(c1)CCc1ccccc1C2N1CCCC1` [3k, 1-(10,11-dihydro-5H-dibenzo[a,d][7]annulen-5-yl)pyrrolidine hydrochloride], the inhibition at 3 µM at hGluN1/hGluN2A [1] is 49.8 ± 3.27%; against hGluN1/hGluN2B [3] it was 62.1 ± 3.44%. Besides, the IC50 in assay [2] and in assay [4] was above 100 µM throughout.
Take `c1ccc2c(c1)CCc1ccccc1C2NC1CC1` [3d, N-cyclopropyl-10,11-dihydro-5H-dibenzo[a,d][7]annulen-5-amine hydrochloride]: the inhibition at 3 µM was determined as 40.1 ± 3.42% against hGluN1/hGluN2A [1] and 53.6 ± 3.16% against hGluN1/hGluN2B [3]. In addition, the IC50 in assay [2] and in assay [4] was above 100 µM throughout.
Regarding `CCNC1c2ccccc2C=Cc2ccccc21` [6b, N-ethyl-5H-dibenzo[a,d][7]annulen-5-amine hydrochloride], the inhibition at 3 µM on hGluN1/hGluN2A [1] was determined as 39.9 ± 4.78%; on hGluN1/hGluN2B [3], 59.9 ± 3.15%. Further, the 50% inhibitory concentration (IC50) in assay [2] and in assay [4] was above 100 µM each time.
On to `C1=Cc2ccccc2C(N2CCCC2)c2ccccc21` [6k, 1-(5H-dibenzo[a,d][7]annulen-5-yl)pyrrolidine hydrochloride], for which the inhibition at 3 µM came to 48.6 ± 2.99% against hGluN1/hGluN2A [1] and 85.53 ± 0.21% against hGluN1/hGluN2B [3]. The half-maximal inhibitory concentration (IC50) in assay [2] and in assay [4] was above 100 µM each time.
In the case of `COCCNC1c2ccccc2CCc2ccccc21` [3j, N-(2-methoxyethyl)-10,11-dihydro-5H-dibenzo[a,d][7]annulen-5-amine hydrochloride], the results for the inhibition at 3 µM against hGluN1/hGluN2A [1] and against hGluN1/hGluN2B [3] were 34.9 ± 4.8% and 66.6 ± 3.9%, respectively. The concentration for half-maximal inhibition (IC50) in assay [2] and in assay [4] was above 100 µM each time.
Take `CCCCNC1c2ccccc2C=Cc2ccccc21` [6e, N-butyl-5H-dibenzo[a,d][7]annulen-5-amine hydrochloride]: the figures for the inhibition at 3 µM at hGluN1/hGluN2A [1] and against hGluN1/hGluN2B [3] were 81.1 ± 2.62% and 79.2 ± 2.84%, respectively. The half-inhibitory concentration (IC50) in assay [2] and in assay [4] was above 100 µM throughout.
In the case of `COCCNC1c2ccccc2C=Cc2ccccc21` [6j, N-(2-methoxyethyl)-5H-dibenzo[a,d][7]annulen-5-amine hydrochloride], the values for the inhibition at 3 µM on hGluN1/hGluN2A [1] and against hGluN1/hGluN2B [3] were 35.6 ± 1.09% and 60 ± 4.39%, respectively. Further, the IC50 in assay [2] and in assay [4] was above 100 µM in each case.
With `OCCNC1c2ccccc2C=Cc2ccccc21` [6l, 2-((5H-dibenzo[a,d][7]annulen-5-yl)amino)ethanol hydrochloride], the values for the inhibition at 3 µM on hGluN1/hGluN2A [1] and at hGluN1/hGluN2B [3] were 38.2 ± 3.8% and 48.8 ± 4.13%, respectively. In addition, the half-inhibitory concentration (IC50) in assay [2] and in assay [4] was above 100 µM throughout.
On to `CC(C)NC1c2ccccc2C=Cc2ccccc21` [6c, N-isopropyl-5H-dibenzo[a,d][7]annulen-5-amine hydrochloride], for which the inhibition at 3 µM against hGluN1/hGluN2A [1] was determined as 75.6 ± 2.36%; on hGluN1/hGluN2B [3] it was 76 ± 2.22%. Moreover, the IC50 in assay [2] and in assay [4] was above 100 µM each time.
For the compound `CCNC1c2ccccc2CCc2ccccc21` [3b, N-ethyl-10,11-dihydro-5H-dibenzo[a,d][7]annulen-5-amine hydrochloride], the results for the inhibition at 3 µM on hGluN1/hGluN2A [1] and at hGluN1/hGluN2B [3] were 34 ± 4.6% and 51.8 ± 3.39%, respectively. In addition, the half-maximal inhibitory concentration (IC50) in assay [2] and in assay [4] was above 100 µM in each case.
For `CC(C)CNC1c2ccccc2CCc2ccccc21` [3f, N-isobutyl-10,11-dihydro-5H-dibenzo[a,d][7]annulen-5-amine hydrochloride], the inhibition at 3 µM against hGluN1/hGluN2A [1] worked out at 76.8 ± 2.99%. Moreover, the “RI (%) at 3 μM” value at hGluN1/hGluN2B [5] amounted to 91.62 ± 0.99%. Further, the 50% inhibitory concentration (IC50) in assay [2] and in assay [4] was above 100 µM in each case.
Regarding `CC(C)NC1c2ccccc2CCc2ccccc21` [3c, N-isopropyl-10,11-dihydro-5H-dibenzo[a,d][7]annulen-5-amine hydrochloride], the inhibition at 3 µM against hGluN1/hGluN2A [1] stood at 52.2 ± 5.23%; against hGluN1/hGluN2B [3], 76.9 ± 3.57%. Moreover, the 50% inhibitory concentration (IC50) in assay [2] and in assay [4] was above 100 µM throughout.
Take `CN1CCN(C2c3ccccc3CCc3ccccc32)CC1` [3m, 1-(10,11-dihydro-5H-dibenzo[a,d][7]annulen-5-yl)-4-methylpiperazine dihydrochloride]: the inhibition at 3 µM against hGluN1/hGluN2A [1] is 9.7 ± 2.41%; against hGluN1/hGluN2B [3], 9.49 ± 2.17%. The IC50 in assay [2] and in assay [4] was above 100 µM each time.
`CNC1c2ccccc2CCc2ccccc21` [3a, N-methyl-10,11-dihydro-5H-dibenzo[a,d][7]annulen-5-amine hydrochloride]: the “RI (%) at 3 μM” value on hGluN1/hGluN2A [6] was 82.34 ± 3.25%. Further, the IC50 in assay [2] and in assay [4] was above 100 µM in each case. Further, at hGluN1/hGluN2B [3], the inhibition at 3 µM came to 71 ± 1.75%.
